“Also recorded” adds a separate entry of the source.
Tests used:
[1] = tested on: DQ8; conditions: cited from earlier work
[2] = tested on: NOD mice; conditions: cited from earlier work
[3] = tested on: alpha myosin HC presentation to DQ8 molecules; assay: Cardiac myosin-specific DQ8-restricted Clone E T cell hybridoma (BWZ.36.CE, lacZ/β-galactosidase readout) antigen presentation assay; assay type: cell-based, human; conditions: in vitro, dose-dependent, DQ8-expressing APCs
Text: FIGS. 15A-C are data showing that the small molecule, tetraazatricyclododecane (TATD), that was predicted to bind pocket 6 of the DQ8 peptide-binding groove (Michels et al, Journal of immunology, 2011), inhibits cardiac myosin presentation by DQ8 to T cells. FIGS. 15A and B are graphs showing that T cell response to insulin B9:23 peptide, measured by IL-2 concentration, is blocked by TATD in a dose dependent manner, for DQ8 and I-Ag7 (Michels et al., Journal of Immunology, 2011). FIG. 15C is a graph showing that T cell response to cardiac myosin stimulation is blocked in vitro by TATD is a dose-dependent manner, in a manner similar to the blocking effect on insulin B9:23 presentation to DQ8. In this assay, T cell responses were measured using our cardiac myosin-specific DQ8-restricted (Clone E) T cell hybridoma that was engineered to produce β-galactosidase following T-cell receptor-antigen stimulation.
To assess the potential efficacy in the setting of post-infarct autoimmunity, we created a lacZ-inducible alpha myosin HC-specific CD4^+ T-cell hybridoma by fusing Clone E, a pathogenic DQ8-restricted CD4^+ T cell clone isolated from a myocarditic heart (Lv H et al., J Clin Invest, 2011) (FIGS. 14A-D), and BWZ.36 fusion partner (Karttunen J et al., Proc Natl Acad Sci USA, 1992), and successfully generated the hybrid, BWZ.36.CE. […]

[4] = tested on: I-Ag7; conditions: I-Ag7, dose dependent; cited from earlier work

## C1CN2CN3CCN(CN1C3)C2 [TATD, tetraazatricyclododecane]
[1]; DQ8, dose dependent
  T cell response to insulin B9:23 peptide, measured by IL-2 concentration: blocked
[1]; DQ8 compared with I-Ag7
  relative potency of blocking DQ8 versus I-Ag7 molecules: more potently blocks DQ8 than I-A^g7
[2]
  preventing T1D in NOD mice: efficacious
[3]
  block of alpha myosin HC presentation to DQ8 molecules (T cell response to cardiac myosin stimulation): completely block; also recorded: blocked
[4]
  T cell response to insulin B9:23 peptide, measured by IL-2 concentration: blocked

From US20140271694A1, “ANTIGEN-SPECIFIC METHODS OF DIAGNOSING AND/OR TREATING MYOCARDITIS OR INFLAMMATORY CARDIOMYOPATHY” (Joslin Diabetes Center, Inc., priority 2013, published 2014)
